Assay results taken from article PMC6934184, “Selective DNA-PKcs inhibition extends the therapeutic index of localized radiotherapy and chemotherapy” (The Journal of Clinical Investigation, 2019).

Biological target: T1, FGFR1 V561M (Homo sapiens, UniProt P11362, V561M)
T1 construct: purchased Thermo Fisher Scientific (Life Technologies) SelectScreen
Experiment: SelectScreen LanthaScreen
Type: binding
Conditions: read-out: % displacement
In short: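 Percent values come from Thermo SelectScreen profiling of NU5455, combining activity and binding assays. CSF1R was run in Z'LYTE format at Km app ATP, and CAMK1 in Adapta format with ATP listed at 10.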

T1 sequence (P11362 22-822 V561M): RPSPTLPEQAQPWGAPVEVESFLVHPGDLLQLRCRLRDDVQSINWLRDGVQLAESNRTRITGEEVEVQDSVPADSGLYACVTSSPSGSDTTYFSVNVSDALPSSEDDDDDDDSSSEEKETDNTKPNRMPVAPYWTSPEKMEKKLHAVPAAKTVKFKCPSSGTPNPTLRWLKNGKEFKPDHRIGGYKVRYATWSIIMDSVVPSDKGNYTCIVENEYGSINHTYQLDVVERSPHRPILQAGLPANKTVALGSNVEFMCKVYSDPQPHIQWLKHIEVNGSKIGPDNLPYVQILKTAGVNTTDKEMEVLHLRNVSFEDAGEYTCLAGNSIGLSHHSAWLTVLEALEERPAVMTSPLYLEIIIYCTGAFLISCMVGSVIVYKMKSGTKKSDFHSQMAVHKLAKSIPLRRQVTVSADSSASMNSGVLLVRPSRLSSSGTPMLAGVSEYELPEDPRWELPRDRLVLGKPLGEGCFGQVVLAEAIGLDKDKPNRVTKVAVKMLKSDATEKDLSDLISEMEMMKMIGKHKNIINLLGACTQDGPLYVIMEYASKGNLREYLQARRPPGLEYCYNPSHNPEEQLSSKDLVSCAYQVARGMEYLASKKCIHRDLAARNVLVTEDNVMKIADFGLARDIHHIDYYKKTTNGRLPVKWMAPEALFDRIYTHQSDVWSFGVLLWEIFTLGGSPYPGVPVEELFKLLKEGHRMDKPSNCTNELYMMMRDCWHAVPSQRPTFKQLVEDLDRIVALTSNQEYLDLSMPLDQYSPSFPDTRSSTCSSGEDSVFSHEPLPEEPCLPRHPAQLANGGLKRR

`CN(C(=O)CN1CCOCC1)c1ccc2sc3c(-c4cccc5c(=O)cc(N6CC7CCC(C6)O7)oc45)cccc3c2c1` [NU5455] was tested, and the inhibition at 1 µM was 5.1%.
